The target in experiment [1] is Signal transducer and activator of transcription 3 (Homo sapiens) (UniProt P40763). The experiment is described as follows: Inhibition of STAT3 in human HeLa cells after 24 hrs by luciferase reporter gene assay. The experiment is classed as cell-based. On the technique in general: In a reporter assay the amount or activity of a reporter protein is the signal.
Experiment [2] shares this target. The experiment is described as follows: Inhibition of STAT3 in human HeLa cells at 5 uM after 24 hrs by luciferase reporter gene assay. Type of experiment: cell-based.

Activity calls are given as the source filed them. The calls are words filed in the database; no cut-off is given here.

Sequence of Signal transducer and activator of transcription 3 (Homo sapiens) (P40763 whole entry): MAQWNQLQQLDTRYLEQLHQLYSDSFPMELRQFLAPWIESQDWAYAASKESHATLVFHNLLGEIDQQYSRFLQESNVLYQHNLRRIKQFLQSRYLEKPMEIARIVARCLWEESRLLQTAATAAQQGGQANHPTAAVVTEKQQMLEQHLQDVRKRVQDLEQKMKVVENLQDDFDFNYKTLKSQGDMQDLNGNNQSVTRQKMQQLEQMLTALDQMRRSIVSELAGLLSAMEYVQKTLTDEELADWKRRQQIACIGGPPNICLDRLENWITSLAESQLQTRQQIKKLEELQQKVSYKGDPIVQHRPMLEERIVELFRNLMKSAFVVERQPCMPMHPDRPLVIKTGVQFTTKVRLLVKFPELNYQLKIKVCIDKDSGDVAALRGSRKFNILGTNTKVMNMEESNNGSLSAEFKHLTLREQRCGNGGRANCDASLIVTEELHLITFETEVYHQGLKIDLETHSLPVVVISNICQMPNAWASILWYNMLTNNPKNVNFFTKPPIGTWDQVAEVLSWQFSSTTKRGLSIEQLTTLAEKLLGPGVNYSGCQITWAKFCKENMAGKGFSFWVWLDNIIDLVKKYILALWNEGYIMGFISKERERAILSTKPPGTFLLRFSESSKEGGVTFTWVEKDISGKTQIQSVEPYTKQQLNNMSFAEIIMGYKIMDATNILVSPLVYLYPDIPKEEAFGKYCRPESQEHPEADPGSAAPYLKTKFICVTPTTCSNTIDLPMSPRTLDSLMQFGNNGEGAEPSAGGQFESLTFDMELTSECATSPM

Consider `COc1ccc(C(=O)N2CCCC2=O)cc1`, for which the inhibition entry in experiment [1] was “inactive”. On to `CCOC(=O)c1c(CSc2ccccc2)n(C)c2cc(Br)c(O)c(CN(C)C)c12`, for which, in experiment [2], the inhibition result was “inactive”.

The record behind these values is ChEMBL document CHEMBL1687697 (ACS Med Chem Lett, 2010).
